Measured values: PubChem BioAssay (NCI)
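Five concentrations, 48 hours, 96-well plates. At the GI50, growth is halved. TGI denotes the concentration required for complete inhibition of growth.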

Experiments:
Experiment in all cases: growth of human tumour cells (NCI), 48 h
COLO 205 colon = test system: COLO 205 colon
SF-539 CNS = test system: SF-539 CNS
SF-295 CNS = test system: SF-295 CNS
UACC-62 melanoma = test system: UACC-62 melanoma
OVCAR-5 ovarian = test system: OVCAR-5 ovarian
OVCAR-4 ovarian = test system: OVCAR-4 ovarian
U251 CNS = test system: U251 CNS
LOX IMVI melanoma = test system: LOX IMVI melanoma
SK-OV-3 ovarian = test system: SK-OV-3 ovarian
MALME-3M melanoma = test system: MALME-3M melanoma

Question: Which results are given for `C[C@H]1C(=O)O[C@@H]2CCN3CC=C(COC(=O)[C@](C)(O)[C@@]1(C)O)[C@H]23`?
Answer: TGI (COLO 205 colon): > 100 µM; TGI (SF-539 CNS): > 100 µM; TGI (SF-295 CNS): > 100 µM; TGI (UACC-62 melanoma): > 100 µM; TGI (OVCAR-5 ovarian): > 100 µM; TGI (OVCAR-4 ovarian): > 100 µM; TGI (U251 CNS): > 100 µM; TGI (LOX IMVI melanoma): > 100 µM; TGI (SK-OV-3 ovarian): > 100 µM

Question: Which results are given for `CC(=O)NNc1nc(-c2ccc([N+](=O)[O-])cc2)c(C#N)c(=O)n1C`?
Answer: TGI (COLO 205 colon): > 100 µM; TGI (MALME-3M melanoma): > 100 µM; TGI (SF-539 CNS): 35.1 µM; TGI (SF-295 CNS): > 100 µM; TGI (UACC-62 melanoma): > 100 µM; TGI (OVCAR-5 ovarian): 77 µM; TGI (OVCAR-4 ovarian): 52.7 µM; TGI (U251 CNS): 50 µM; TGI (LOX IMVI melanoma): 41.3 µM; TGI (SK-OV-3 ovarian): > 100 µM

Question: With `CN(C)C(=O)/C=C/c1c[nH]c(=O)[nH]c1=O` as the molecule, how does the TGI (COLO 205 colon) read?
Answer: > 500 µM

Question: What about the TGI (MALME-3M melanoma) of the same molecule?
Answer: > 500 µM

Question: And the TGI (SF-539 CNS)?
Answer: > 500 µM

Question: What about the TGI (SF-295 CNS) of the same molecule?
Answer: > 500 µM

Question: And the TGI (UACC-62 melanoma)?
Answer: > 500 µM

Question: What about the TGI (OVCAR-5 ovarian) of the same molecule?
Answer: > 500 µM

Question: What about the TGI (OVCAR-4 ovarian) of the same molecule?
Answer: > 500 µM

Question: What about the TGI (U251 CNS) of the same molecule?
Answer: > 500 µM

Question: And the TGI (LOX IMVI melanoma)?
Answer: > 500 µM

Question: And the TGI (SK-OV-3 ovarian)?
Answer: > 280 µM

Question: How did the TGI (COLO 205 colon) turn out when `COc1ccc(C2=C3SC=c4ccccc4=C3ON=C2c2ccccc2)cc1` was run?
Answer: > 100 µM

Question: And the TGI (MALME-3M melanoma)?
Answer: > 100 µM

Question: And the TGI (SF-539 CNS)?
Answer: > 100 µM

Question: What about the TGI (SF-295 CNS) of the same molecule?
Answer: > 100 µM

Question: What about the TGI (UACC-62 melanoma) of the same molecule?
Answer: > 100 µM

Question: What about the TGI (OVCAR-5 ovarian) of the same molecule?
Answer: > 100 µM

Question: And the TGI (OVCAR-4 ovarian)?
Answer: > 100 µM

Question: And the TGI (U251 CNS)?
Answer: > 100 µM

Question: What about the TGI (LOX IMVI melanoma) of the same molecule?
Answer: > 100 µM

Question: What does the source list for `Cc1cccc2c1Sc1ccccc1C2NC(=O)CCN(C)C` (stereo unspecified)?
Answer: TGI (COLO 205 colon): > 100 µM; TGI (SF-539 CNS): > 100 µM; TGI (UACC-62 melanoma): > 100 µM; TGI (OVCAR-5 ovarian): > 100 µM; TGI (OVCAR-4 ovarian): > 100 µM; TGI (U251 CNS): > 100 µM; TGI (LOX IMVI melanoma): > 100 µM; TGI (SK-OV-3 ovarian): > 100 µM

Question: How did the TGI (COLO 205 colon) turn out when `O=C(Nc1ccc([N+](=O)[O-])cc1[N+](=O)[O-])C(=O)C(C(=O)c1ccc2ccccc2c1)C1OC(=O)c2ccccc21` (stereo unspecified) was run?
Answer: 35 µM

Question: And the TGI (SF-539 CNS)?
Answer: 18.6 µM

Question: What about the TGI (SF-295 CNS) of the same molecule?
Answer: 55.1 µM

Question: And the TGI (UACC-62 melanoma)?
Answer: 30.2 µM

Question: And the TGI (OVCAR-5 ovarian)?
Answer: 58.2 µM

Question: And the TGI (OVCAR-4 ovarian)?
Answer: 60.3 µM

Question: And the TGI (U251 CNS)?
Answer: 16.9 µM

Question: And the TGI (LOX IMVI melanoma)?
Answer: 37.6 µM

Question: And the TGI (SK-OV-3 ovarian)?
Answer: 42.1 µM

Question: `CN(C)CCNC(=O)c1cccc2ccc(-c3ccc(F)cc3)nc12` was tested. Which TGI (COLO 205 colon) did it give?
Answer: 10.9 µM

Question: And the TGI (MALME-3M melanoma)?
Answer: 13.6 µM

Question: And the TGI (SF-539 CNS)?
Answer: 14.9 µM

Question: What about the TGI (SF-295 CNS) of the same molecule?
Answer: 19.7 µM

Question: What about the TGI (UACC-62 melanoma) of the same molecule?
Answer: 13.4 µM

Question: What about the TGI (OVCAR-5 ovarian) of the same molecule?
Answer: 25.6 µM

Question: And the TGI (OVCAR-4 ovarian)?
Answer: 18.3 µM

Question: What about the TGI (U251 CNS) of the same molecule?
Answer: 22.3 µM

Question: What about the TGI (LOX IMVI melanoma) of the same molecule?
Answer: 9.88 µM

Question: What about the TGI (SK-OV-3 ovarian) of the same molecule?
Answer: 24.8 µM

Question: Which GI50 (COLO 205 colon) does the source give for `COc1cc(C2CC(c3cccc(Nc4ccncc4)c3)=NN2c2ccc(Cl)cc2)cc(OC)c1OC` (stereo unspecified) here?
Answer: 2.12 µM

Question: What about the TGI (COLO 205 colon) of the same molecule?
Answer: 4.79 µM

Question: What about the GI50 (MALME-3M melanoma) of the same molecule?
Answer: 1.66 µM

Question: And the TGI (MALME-3M melanoma)?
Answer: 3.11 µM

Question: What about the GI50 (SF-539 CNS) of the same molecule?
Answer: 1.64 µM

Question: What about the TGI (SF-539 CNS) of the same molecule?
Answer: 3.05 µM

Question: And the GI50 (SF-295 CNS)?
Answer: 1.68 µM

Question: And the TGI (SF-295 CNS)?
Answer: 3.05 µM

Question: What about the GI50 (UACC-62 melanoma) of the same molecule?
Answer: 1.69 µM

Question: And the TGI (UACC-62 melanoma)?
Answer: 3.14 µM

Question: What about the GI50 (OVCAR-5 ovarian) of the same molecule?
Answer: 1.66 µM

Question: What about the TGI (OVCAR-5 ovarian) of the same molecule?
Answer: 3.13 µM

Question: And the GI50 (OVCAR-4 ovarian)?
Answer: 1.62 µM

Question: What about the TGI (OVCAR-4 ovarian) of the same molecule?
Answer: 3.08 µM

Question: What about the GI50 (SK-OV-3 ovarian) of the same molecule?
Answer: 1.77 µM

Question: And the TGI (SK-OV-3 ovarian)?
Answer: 3.43 µM
